What was measured:
[1] = target: human Cav2.1 (α1A-2) channel and GABABR (Homo sapiens, UniProt O75899+Q9UBS5); assay type: cell-based; settings: 200 nM
[2] = target: human Cav2.3c (α1E-c) channel and GABABR (Homo sapiens, UniProt O75899+Q9UBS5); assay type: cell-based; settings: 200 nM
[3] = test system: human Cav2.3c channel and GABABR; assay type: cell-based
[4] = test system: rat models of neuropathic pain; settings: in vivo; cited from earlier work
[5] = test system: GABABR; settings: cited from earlier work

Vc1.1
IBa inhibition [1]: 0 (9) %
IBa inhibition [2]: 25.5 ± 4.2 (9) %
pathway of inhibition (VD or VI) [3]: solely mediated by a VI pathway
analgesic effect [4]: can be used as an analgesic in rat models of neuropathic pain
competition with baclofen for binding to receptors [5]: does not compete with baclofen for binding to receptors
